Measured values: patent US10081609B2, “Compounds for inducing proliferation and differentiation of cells, and methods of use thereof” (The Broad Institute, Inc., priority 2013, dated 2018)

Legend:
[1] = test system: human primary hepatocytes; experiment: High-throughput liver platform, primary screening: hepatocyte proliferation by automated high-content imaging (hepatocyte nuclei numbers); format: cell-based; conditions: primary screening
Procedure: In order to avoid species-specific differences and cell line mutations, the screen was conducted with human primary hepatocytes. Traditionally, chemical screening on such cells has been hindered by their availability in large quantities as well as their rapid loss of viability and phenotype in vitro. Recent advances in cryopreservation technologies allowed enough primary human cells to be stored for screening; these cells are maintained through co-cultivation with non-parenchymal cells. Co-cultures of primary human hepatocytes with murine embryonic J2-3T3 fibroblasts were recently shown to maintain normal hepatocyte phenotype for weeks. These in vitro platforms consisted of hepatocytes surrounded by a co-planar population of fibroblasts. While sufficient for stabilizing hepatocyte functions in vitro, such platforms may limit normal hepatocyte expansion due to contact inhibition. Thus, for this screen, a sparse population of hepatocytes was co-cultivated on top of a confluent feeder layer of J2-3T3 fibroblasts within 384-well plates (FIG. 1A top). This screening platform stabilized hepatocyte phenotypic functions in vitro (FIG. 1A bottom) and was compatible with two separate high-throughput readouts developed for this screen.
The primary readout detected hepatocyte proliferation via automated high-content imaging. This assay quantified hepatocyte nuclei numbers, using nuclear morphologies to separate the hepatocyte and fibroblast subpopulations that co-exist within the screening platform. When visualized with Hoechst stain, hepatocyte nuclei were smaller and more uniform in texture while fibroblast nuclei were larger and punctated (FIG. 1A bottom). Leveraging this distinction, automated image analyses was developed that utilized machine learning algorithms to classify nuclei types and tabulate hepatocyte nuclei numbers. […] Besides quantifying hepatocyte nuclei that have completed mitosis, the number of nuclei in the process of mitosis were also quantified. Two additional analysis pipelines were built to detect nuclear morphologies consistent with cells undergoing metaphase and anaphase.
FIG. 1B top summarizes the workflow of the screen. Primary screening was done on human primary hepatocytes, preconditioned for seven days by non-parenchymal cells in the screening platform. Upon stabilization in vitro, cultures were treated with the chemical library for 48 hours. All compounds were tested in duplicates, at a single concentration of 15 μM. This single concentration was selected via a pilot screen of ˜2,000 small molecules. All 12,480 small molecules were initially tested on a single donor of cryopreserved hepatocytes (donor a) in order to eliminate noise from donor-to-donor variability. Following compound treatment, media supernatants were collected for functional analyses via ELISA and cultures were fixed in 4% paraformaldehyde for proliferation analyses via imaging.
To identify proliferation hits, three image-based readouts—one each to quantify the number of (1) hepatocyte nuclei in interphase, (2) nuclei in metaphase and (3) nuclei in anaphase—were integrated. z Scores were converted into p values, which were then used to generate ranked lists of compounds based on the efficacy and consistency of effects across the different proliferation readouts. Efficacy was assessed by the product of p values (pprod=pinter×pmeta×pana); consistency was evaluated by the maximum of p values (pmax=max(pinter, pmeta, pana). Compounds were considered proliferation hits if pprod<1×10^−6 and pmax<0.25. Functional hits were selected by an ELISA […]. Compounds with ELISA z>3.0 were eliminated as toxic. 93 compounds met all hit selection criteria, qualifying as Functional Proliferation Hits (FPH); FIG. 1B bottom illustrates the types of compounds that constituted this set of hits.

[2] = test system: human primary hepatocytes; experiment: Expansion of human primary hepatocytes on growth-arrested J2-3T3 feeder layer in 12-well plates (imaging, cell counting, FACS, biochemical assays); format: cell-based
Procedure: Culture media were collected and frozen at −20° C. until analysis. Albumin content was measured through sandwich ELISA assays (MP Biomedicals, Fitzgerald, Bethyl Laboratories) using horseradish peroxidase detection and 3,3′,5,5′-tetramethylbenzidine (TMB, Fitzgerald Industries) as a substrate. Urea concentration was determined colorimetrically using diacetylmonoxime with acid and heat (Stanbio Labs). To quantify CYP450 activity, at 48 hours after small molecule exposure, cultures were incubated with substrates (coumarin from Sigma for CYP2A6, luciferin-IPA from Promega for CYP3A4) for 4 hours at 37° C. Incubation medium was collected and metabolite concentration quantified via luminescence, or fluorescence after hydrolization of potential metabolite conjugates by β-glucuronidase/arylsulfatase (Roche, Ind.).
To characterize the effects of FPH1 and FPH2 outside of the screening platform, human primary hepatocytes were seeded at a density of ˜20,000 cells/cm^2, into standard 12-well tissue culture plates on top of a feeder layer of growth-arrested J2-3T3s. These cells were cultured for 7 days, during which time a single compound/FPH was supplemented into the media on days 1 and 5 at a concentration of 20 μM. Treated hepatocyte colonies increased in size over time, with more hepatocytes populating each colony (FIG. 2D, 2E).
To characterize the degree of proliferation and to obtain a doubling time, cells were counted and fluorescence-activated cell sorting (FACS) was performed (FIG. 2H). For cell counting, FPH-treated cells were trypsinized after seven days in culture. The number of cells was quantified using an automated cell counter. The number of hepatocytes was obtained by subtracting the number of fibroblasts from the total number of cells found in the corresponding co-culture. For FACS analysis, growth arrested J2-3T3s were labeled with CM-DiI prior to initiation of co-culture so that hepatocytes can be identified via negative selection. To enable cell counting during FACS, each sample was supplemented with fluorescent counting beads. […] Over 7 days, FPH1 induced hepatocyte doublings at a rate that is consistent with reported liver regeneration kinetics in vivo.
To assess the phenotype of the treated hepatocytes, imaging, biochemical analyses and gene expression profiling were performed. […] Albumin secretion and urea synthesis, a surrogate marker of nitrogen metabolism, were both stable throughout FPH treatment (FIG. 3A top and middle). Metabolic functions were assessed via examinations of cytochrome P450 (CYP450) activity and canalicular transport. […] Gene expression profiling confirmed that there are no significant differences between FPH-treated and untreated hepatocytes (FIG. 3C).

[3] = test system: primary human hepatocytes; experiment: Expansion of primary human hepatocytes from six additional cell sources (Ki67/albumin staining, FACS); format: cell-based
Procedure: On day seven, the number of hepatocytes was quantified by FACS analysis (FIG. 6B). Day one untreated controls was added to the bar graph for reference.

[4] = target: CK1 γ2 (Homo sapiens, UniProt P78368); experiment: Kinome analysis (panel of kinases); format: biochemical
Procedure: (§1) Selected compounds of the invention (FPH1 and FPH2; both at 1 μM concentration) were screened against a panel of kinases (FIG. 17).

[5] = target: EphB4 (Homo sapiens, UniProt P54760); experiment: Kinome analysis (panel of kinases); format: biochemical
Chain of EphB4 (P54760 16-987, species assumed): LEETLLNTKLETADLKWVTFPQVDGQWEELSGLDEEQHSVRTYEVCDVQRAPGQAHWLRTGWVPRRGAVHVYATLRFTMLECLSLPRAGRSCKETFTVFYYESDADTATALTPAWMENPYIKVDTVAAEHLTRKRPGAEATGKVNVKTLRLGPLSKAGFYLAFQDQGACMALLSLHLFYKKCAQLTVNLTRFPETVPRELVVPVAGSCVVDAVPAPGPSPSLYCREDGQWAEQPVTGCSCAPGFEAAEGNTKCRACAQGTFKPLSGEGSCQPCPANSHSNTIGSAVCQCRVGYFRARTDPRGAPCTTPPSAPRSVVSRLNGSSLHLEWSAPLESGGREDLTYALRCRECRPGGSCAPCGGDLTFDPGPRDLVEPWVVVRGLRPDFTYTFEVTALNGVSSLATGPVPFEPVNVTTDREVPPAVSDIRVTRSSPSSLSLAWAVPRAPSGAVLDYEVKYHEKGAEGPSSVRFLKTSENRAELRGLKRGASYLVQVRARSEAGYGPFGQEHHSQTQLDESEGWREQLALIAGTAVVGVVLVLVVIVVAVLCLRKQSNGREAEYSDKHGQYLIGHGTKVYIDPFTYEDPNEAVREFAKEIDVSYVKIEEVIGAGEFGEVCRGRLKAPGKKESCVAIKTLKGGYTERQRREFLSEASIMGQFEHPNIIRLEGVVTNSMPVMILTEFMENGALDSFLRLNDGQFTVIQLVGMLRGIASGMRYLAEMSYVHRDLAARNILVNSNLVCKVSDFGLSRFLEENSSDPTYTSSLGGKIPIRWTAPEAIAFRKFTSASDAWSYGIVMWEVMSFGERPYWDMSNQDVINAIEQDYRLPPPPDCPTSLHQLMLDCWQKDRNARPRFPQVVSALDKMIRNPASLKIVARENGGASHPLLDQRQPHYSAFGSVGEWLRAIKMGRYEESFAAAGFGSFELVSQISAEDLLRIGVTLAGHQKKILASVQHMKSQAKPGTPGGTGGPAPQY
Procedure: as §1

[6] = target: FMS (Homo sapiens, UniProt P07333); experiment: Kinome analysis (panel of kinases); format: biochemical
Chain of FMS (P07333 20-972, species assumed): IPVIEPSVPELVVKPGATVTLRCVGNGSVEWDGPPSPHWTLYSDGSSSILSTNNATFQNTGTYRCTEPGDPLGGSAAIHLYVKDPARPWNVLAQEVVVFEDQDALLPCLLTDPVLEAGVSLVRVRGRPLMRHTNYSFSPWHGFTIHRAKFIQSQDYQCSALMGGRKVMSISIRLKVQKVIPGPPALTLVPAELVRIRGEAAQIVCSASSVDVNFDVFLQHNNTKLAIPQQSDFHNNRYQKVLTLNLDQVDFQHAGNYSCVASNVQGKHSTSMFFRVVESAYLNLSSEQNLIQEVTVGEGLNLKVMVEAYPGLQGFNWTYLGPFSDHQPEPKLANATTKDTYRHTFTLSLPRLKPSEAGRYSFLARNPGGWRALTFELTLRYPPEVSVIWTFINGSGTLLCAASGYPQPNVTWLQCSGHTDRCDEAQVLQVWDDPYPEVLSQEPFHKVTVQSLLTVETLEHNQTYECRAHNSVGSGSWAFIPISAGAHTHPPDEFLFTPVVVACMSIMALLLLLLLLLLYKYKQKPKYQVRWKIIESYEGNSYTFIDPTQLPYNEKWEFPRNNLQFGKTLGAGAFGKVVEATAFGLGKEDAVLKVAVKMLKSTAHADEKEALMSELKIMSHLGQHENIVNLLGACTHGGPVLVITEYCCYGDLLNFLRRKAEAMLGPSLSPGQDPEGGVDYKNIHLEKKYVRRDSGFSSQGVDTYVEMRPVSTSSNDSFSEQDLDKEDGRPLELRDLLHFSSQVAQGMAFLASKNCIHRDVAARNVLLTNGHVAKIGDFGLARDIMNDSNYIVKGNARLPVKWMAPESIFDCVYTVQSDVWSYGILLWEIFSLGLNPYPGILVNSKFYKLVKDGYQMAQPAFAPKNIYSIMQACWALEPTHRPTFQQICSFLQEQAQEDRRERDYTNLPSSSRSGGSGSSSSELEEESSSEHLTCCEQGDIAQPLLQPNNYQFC
Procedure: as §1

[7] = target: GRK1 (Homo sapiens, UniProt Q15835); experiment: Kinome analysis (panel of kinases); format: biochemical
Procedure: as §1

[8] = target: IGF-1R (Homo sapiens, UniProt P08069); experiment: Kinome analysis (panel of kinases); format: biochemical
Chain of IGF-1R (P08069 31-1367, species assumed): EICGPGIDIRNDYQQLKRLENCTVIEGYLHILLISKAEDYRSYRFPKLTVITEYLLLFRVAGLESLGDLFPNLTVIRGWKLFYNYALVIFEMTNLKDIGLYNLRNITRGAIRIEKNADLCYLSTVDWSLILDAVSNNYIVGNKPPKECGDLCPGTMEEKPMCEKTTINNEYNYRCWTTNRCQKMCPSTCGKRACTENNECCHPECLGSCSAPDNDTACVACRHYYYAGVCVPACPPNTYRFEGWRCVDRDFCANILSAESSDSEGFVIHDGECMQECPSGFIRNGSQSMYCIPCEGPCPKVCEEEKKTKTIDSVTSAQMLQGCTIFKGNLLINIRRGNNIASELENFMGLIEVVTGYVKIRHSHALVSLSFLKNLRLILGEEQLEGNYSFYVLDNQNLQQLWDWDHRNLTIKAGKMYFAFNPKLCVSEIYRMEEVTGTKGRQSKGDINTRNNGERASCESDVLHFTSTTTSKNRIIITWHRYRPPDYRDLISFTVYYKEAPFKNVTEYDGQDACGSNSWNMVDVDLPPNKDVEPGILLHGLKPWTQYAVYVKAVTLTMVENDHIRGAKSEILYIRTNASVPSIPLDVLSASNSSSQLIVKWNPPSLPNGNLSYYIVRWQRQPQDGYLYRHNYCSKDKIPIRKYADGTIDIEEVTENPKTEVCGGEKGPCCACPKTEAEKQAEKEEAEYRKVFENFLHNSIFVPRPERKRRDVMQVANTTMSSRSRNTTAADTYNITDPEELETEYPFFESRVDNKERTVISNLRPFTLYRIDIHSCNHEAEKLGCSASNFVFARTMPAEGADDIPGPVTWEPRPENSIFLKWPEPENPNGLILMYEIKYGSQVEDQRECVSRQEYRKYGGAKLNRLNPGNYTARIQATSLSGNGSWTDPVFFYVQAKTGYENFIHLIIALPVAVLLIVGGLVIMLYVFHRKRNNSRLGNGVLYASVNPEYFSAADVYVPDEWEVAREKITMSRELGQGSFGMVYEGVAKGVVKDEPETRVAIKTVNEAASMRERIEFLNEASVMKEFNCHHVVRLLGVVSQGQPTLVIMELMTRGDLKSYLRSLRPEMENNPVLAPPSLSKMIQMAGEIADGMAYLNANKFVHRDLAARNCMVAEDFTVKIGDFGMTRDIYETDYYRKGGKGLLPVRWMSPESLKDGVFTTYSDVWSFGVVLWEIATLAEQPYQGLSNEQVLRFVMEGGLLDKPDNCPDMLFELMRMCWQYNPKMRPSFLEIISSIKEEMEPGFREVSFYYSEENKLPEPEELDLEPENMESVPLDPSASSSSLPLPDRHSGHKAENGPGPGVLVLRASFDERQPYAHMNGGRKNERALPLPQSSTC
Procedure: as §1

[9] = target: KDR (Homo sapiens, UniProt P35968); experiment: Kinome analysis (panel of kinases); format: biochemical
Chain of KDR (P35968 20-1356, species assumed): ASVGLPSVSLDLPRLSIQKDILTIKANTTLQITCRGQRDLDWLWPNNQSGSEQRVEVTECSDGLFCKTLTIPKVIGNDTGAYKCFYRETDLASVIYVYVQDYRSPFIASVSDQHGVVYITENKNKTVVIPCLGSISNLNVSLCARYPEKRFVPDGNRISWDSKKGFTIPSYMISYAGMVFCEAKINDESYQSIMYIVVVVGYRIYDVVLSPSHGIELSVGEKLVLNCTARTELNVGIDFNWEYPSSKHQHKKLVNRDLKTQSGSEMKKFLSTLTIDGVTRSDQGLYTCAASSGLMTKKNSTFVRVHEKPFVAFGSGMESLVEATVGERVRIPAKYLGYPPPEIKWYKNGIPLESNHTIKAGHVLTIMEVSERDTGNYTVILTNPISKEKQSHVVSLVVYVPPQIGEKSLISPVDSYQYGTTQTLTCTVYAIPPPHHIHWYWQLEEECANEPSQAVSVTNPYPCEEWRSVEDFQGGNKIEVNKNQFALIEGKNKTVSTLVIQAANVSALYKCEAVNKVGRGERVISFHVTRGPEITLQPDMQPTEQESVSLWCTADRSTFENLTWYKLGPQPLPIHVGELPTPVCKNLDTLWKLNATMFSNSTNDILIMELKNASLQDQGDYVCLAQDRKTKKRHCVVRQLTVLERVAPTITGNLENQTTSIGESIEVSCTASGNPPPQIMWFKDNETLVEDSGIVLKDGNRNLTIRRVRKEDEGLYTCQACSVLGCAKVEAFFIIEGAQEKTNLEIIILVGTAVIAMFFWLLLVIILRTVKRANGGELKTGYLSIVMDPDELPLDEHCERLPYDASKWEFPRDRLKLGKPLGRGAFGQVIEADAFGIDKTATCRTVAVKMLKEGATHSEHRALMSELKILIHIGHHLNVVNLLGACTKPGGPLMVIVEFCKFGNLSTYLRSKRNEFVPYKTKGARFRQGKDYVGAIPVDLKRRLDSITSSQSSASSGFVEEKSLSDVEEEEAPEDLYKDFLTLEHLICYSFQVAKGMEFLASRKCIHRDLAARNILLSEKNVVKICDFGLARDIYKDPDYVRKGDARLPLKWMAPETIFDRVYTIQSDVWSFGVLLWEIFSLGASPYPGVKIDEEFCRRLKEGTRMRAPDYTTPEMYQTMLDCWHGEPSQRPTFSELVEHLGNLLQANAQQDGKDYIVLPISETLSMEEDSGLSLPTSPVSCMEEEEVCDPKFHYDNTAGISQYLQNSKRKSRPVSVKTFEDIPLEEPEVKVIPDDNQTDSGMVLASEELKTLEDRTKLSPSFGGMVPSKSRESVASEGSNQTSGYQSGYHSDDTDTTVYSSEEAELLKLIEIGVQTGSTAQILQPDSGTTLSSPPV
Procedure: as §1

[10] = target: MAPKAP-KII (Homo sapiens, UniProt P49137); experiment: Kinome analysis (panel of kinases); format: biochemical
Procedure: as §1

[11] = target: MAPKAPKV (PRAK) (Homo sapiens, UniProt Q8IW41); experiment: Kinome analysis (panel of kinases); format: biochemical; conditions: read-out: MAPKAPKV (PRAK) inhibition
Chain of MAPKAPKV (PRAK) (Q8IW41 whole entry, species assumed): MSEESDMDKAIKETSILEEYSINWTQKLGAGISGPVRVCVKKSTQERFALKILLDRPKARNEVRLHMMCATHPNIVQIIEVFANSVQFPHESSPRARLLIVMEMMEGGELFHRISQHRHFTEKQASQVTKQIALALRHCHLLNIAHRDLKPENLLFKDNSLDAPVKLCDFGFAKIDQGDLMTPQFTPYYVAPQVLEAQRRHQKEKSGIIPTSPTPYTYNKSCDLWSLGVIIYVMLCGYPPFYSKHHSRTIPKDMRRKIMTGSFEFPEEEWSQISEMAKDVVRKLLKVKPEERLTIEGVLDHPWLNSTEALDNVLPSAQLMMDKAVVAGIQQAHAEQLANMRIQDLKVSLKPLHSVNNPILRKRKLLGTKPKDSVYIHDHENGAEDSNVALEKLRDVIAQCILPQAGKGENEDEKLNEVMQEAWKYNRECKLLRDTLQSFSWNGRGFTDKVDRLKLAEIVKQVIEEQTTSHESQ
Procedure: as §1

[12] = target: MSSK1 (Homo sapiens, UniProt Q9UPE1); experiment: Kinome analysis (panel of kinases); format: biochemical
Procedure: as §1

[13] = target: PAK5 (Homo sapiens, UniProt Q9P286); experiment: Kinome analysis (panel of kinases); format: biochemical
Procedure: as §1

[14] = test system: PI3KCγ; experiment: Kinome analysis (panel of kinases); format: biochemical; conditions: 1 μM
Procedure: as §1

[15] = target: Pim1 (Homo sapiens, UniProt P11309); experiment: Kinome analysis (panel of kinases); format: biochemical
Procedure: as §1

[16] = target: SAPK4 (Homo sapiens, UniProt O15264); experiment: Kinome analysis (panel of kinases); format: biochemical
Procedure: as §1

[17] = target: eEF-2K (Homo sapiens, UniProt O00418); experiment: Kinome analysis (panel of kinases); format: biochemical
Procedure: as §1

number of hepatocytes by FACS ([3]; day seven, all donors): increase
Ki67 staining co-localized with albumin labeled hepatocytes ([3]; six additional cell sources, six days in culture): increased
inhibition at 1 µM [4]: 6.7 to 18.4%
inhibition at 1 µM [5]: 6.7 to 18.4%
inhibition at 1 µM [6]: 23%
remaining activity at 1 µM [6]: 77%
inhibition at 1 µM [7]: 6.7 to 18.4%
inhibition at 1 µM [8]: 21%
remaining activity at 1 µM [8]: 79%
inhibition at 1 µM [9]: 6.7 to 18.4%
inhibition at 1 µM [10]: 6.7 to 18.4%
inhibition at 1 µM [11]: 6.7 to 18.4%
inhibition at 1 µM [12]: 6.7 to 18.4%
inhibition at 1 µM [13]: 6.7 to 18.4%
inhibition at 1 µM [15]: 6.7 to 18.4%
inhibition at 1 µM [16]: 6.7 to 18.4%
inhibition at 1 µM [17]: 6.7 to 18.4%
Structure (SMILES): CCn1cc(NC(=S)Nc2cc(Cl)ccc2OC)c(C(N)=O)n1 [FPH1, 4-(3-(5-chloro-2-methoxyphenyl)thioureido)-1-ethyl-1H-pyrazole-3-carboxamide]
number of nuclei undergoing mitosis [1]: elevated
increase in hepatocyte nuclei numbers during primary screening ([1]; 15 μM, 48 hours): 1.5 ×
increase in the area of albumin-positive colonies ([2]; 20 μM on days 1 and 5, 7 days culture): up to 6.6 fold
degree of proliferation (cell counting, FACS) ([2]; 7 days): strongest proliferation inducer
PI3KCγ inhibition [14]: 6.7-18.4%
